Measured values taken from patent US20240423999A1 (priority 2021, published 2024).

Experiments:
[1] = in vivo; cited from earlier work
[2] = test system: mice; conditions: mouse, in vivo, po

Structure (SMILES): O=S([O-])S(=O)[O-].[Na+].[Na+] [sodium dithionite]
- value indicated for oral toxicity [1]: 2500 mg/kg body weight

Structure (SMILES): [C-]#[O+] [CO, carbon monoxide]
- behavioral recovery [2]: behavior recovered from being incapable of action
- survival rate [2]: high
